Test results: the supplement of paper PMC10331698
± gives the standard deviation of the averaged measurements.

What was measured:
Assay in all cases: LOEC (log10 uM (lowest observed effect concentration))
[1] = compound: C=CC(=O)OCC(F)(F)C(F)(F)C(F)(F)COC(=O)C=C [1H,1H,5H,5H-Perfluoro-1,5-pentanediol diacrylate]
Experimental: (§1)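 BioMAP Diversity Plus panel in human primary cell co-cultures, 4 concentrations in duplicate blinded samples. Responses are log10 fold change versus DMSO control, processed with tcpl v2.1.0. A hit is called when responses at any concentration exceed the cutoff (the larger of 3*bmad or log10(1.2)); the lowest observed effect concentration (modl_ga, log10 uM) is reported for hits.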

[2] = compound: O=C(O)C(F)(F)C(F)(F)C(F)(F)C(F)(F)C(F)(F)C(F)(F)C(F)(F)C(F)(F)C(F)(F)C(F)F [11-H-Perfluoroundecanoic acid]
Experimental: as §1

[3] = compound: NS(=O)(=O)C(F)(F)C(F)(F)C(F)(F)C(F)(F)C(F)(F)C(F)(F)F [Perfluorohexanesulfonamide]
Experimental: as §1

[4] = compound: O=S(=O)(Cl)C(F)(F)C(F)(F)C(F)(F)C(F)(F)C(F)(F)C(F)(F)C(F)(F)C(F)(F)F [Perfluoro-1-octanesulfonyl chloride]
Experimental: as §1

Nonafluoropentanamide = compound: NC(=O)C(F)(F)C(F)(F)C(F)(F)C(F)(F)F [Nonafluoropentanamide]
Experimental: as §1

[5] = compound: COC(=O)C(F)(F)C(F)(F)OC(F)(C(F)(F)F)C(F)(F)OC(F)=C(F)F [Methyl perfluoro(3-(1-ethenyloxypropan-2-yloxy)propanoate)]
Experimental: as §1

[6] = compound: FC(F)(F)C(F)(F)C(F)(F)C(F)(F)C(F)(F)C(F)(F)C(F)(F)I [1-Iodopentadecafluoroheptane]
Experimental: as §1

[7] = compound: O=S(=O)(O)CCC(F)(F)C(F)(F)C(F)(F)C(F)(F)C(F)(F)C(F)(F)F [6:2 Fluorotelomer sulfonic acid]
Experimental: as §1

Test System	LOEC (log10 uM) [1]	LOEC (log10 uM) [2]	LOEC (log10 uM) [3]	LOEC (log10 uM) [4]	other results
hDFCGF MCP1 down	0.301	1.78			
BF4T VCAM1 down	1.3		1.54 ± 0.34		
BE3C SRB down		1.3		1.78	
KF3CT IL1a down	0.573 ± 0.39	1.78			
KF3CT MMP9 down	1.3	1.3		1.78	
3C Thrombomodulin down					LOEC (log10 uM) (Nonafluoropentanamide): 1.31 ± 0.66
IMphg IL1a up			1.54 ± 0.34		LOEC (log10 uM) [5]: 0.845
3C uPAR down	1.78			1.78	
MyoF PAI1 down	1.3	1.78			
3C MCP1 down	1.3	1.78			
BF4T MMP3 up					LOEC (log10 uM) [5]: 0.845
hDFCGF SRB up					LOEC (log10 uM) [5]: 0.301
SAg CD40 down	0.845	1.78	1.78		
3C Eselectin up				1.78	
SAg PBMCCytotoxicity up			1.78		
MyoF CollagenIII down	1.3	1.3		1.78	LOEC (log10 uM) [6]: 0.845
IMphg VCAM1 down	1.07 ± 0.32	1.78			
4H Eotaxin3 down	0.845	1.78	1.78		
KF3CT uPA down	1.3	1.78			
BF4T SRB down	1.78	1.3		1.78	
4H SRB down	1.3	1.78	1.78		
hDFCGF ITAC down	0.301	0.573 ± 0.39	1.78		LOEC (log10 uM) [5]: 0.845
LPS CD69 down	1.3	1.78	1.78		
hDFCGF MIG down	0.301	0.573 ± 0.39			
3C HLADR down	1.07 ± 0.32		1.78		

Test System	LOEC (log10 uM) [1]	LOEC (log10 uM) [2]	LOEC (log10 uM) [3]	LOEC (log10 uM) [4]	other results
BT PBMCCytotoxicity up		1.78		1.78	
IMphg CD69 down	1.78		1.78		
BE3C MMP9 down	1.3	1.07 ± 0.32	1.78	1.78	
IMphg IL10 down	1.3	1.78	1.78	1.78	
hDFCGF MCP1 up			1.78		
4H VCAM1 down	1.3	1.78			
hDFCGF MCSF down	0.301	1.54 ± 0.34			
BE3C uPAR down	1.78	1.3	1.78	1.78	
MyoF ACTA1 down	0.845	1.54 ± 0.34			LOEC (log10 uM) [6]: 0.301
BF4T IL1a down	1.78	1.54 ± 0.34		1.78	
3C SRB down	1.3	1.78	1.78	1.78	
SAg CD38 down	1.07 ± 0.32	1.78			
BF4T MMP9 down	1.3	1.3		1.78	
BE3C HLADR down	1.3	1.3		1.78	
SAg Eselectin up				1.78	
BE3C ITAC down	1.78	1.3		1.78	LOEC (log10 uM) [5]: 0.845
SAg Proliferation down	0.301	1.78			
IMphg SRB.Mphg down	1.78	1.78			
LPS IL8 up				1.78	LOEC (log10 uM) [7]: 1.54 ± 0.34
MyoF VCAM1 down	0.845	1.3			LOEC (log10 uM) [6]: 0.573 ± 0.39
BE3C MMP1 up			1.78		LOEC (log10 uM) [5]: 0.573 ± 0.39
BE3C tPA down	1.3	1.3	1.78	1.78	LOEC (log10 uM) [5]: 0.0731 ± 0.32
IMphg CD40 down	1.3		1.78		
hDFCGF IP10 down	0.301	0.573 ± 0.39	1.54 ± 0.34		LOEC (log10 uM) [5]: 0.845
BF4T MCP1 down	1.3	0.573 ± 0.39	1.78	1.78	
